Legend:
HSF1 = biological target: T1, HSF1 (Homo sapiens, UniProt Q00613); conditions: cited from earlier work
T1 sequence (Q00613 1-529): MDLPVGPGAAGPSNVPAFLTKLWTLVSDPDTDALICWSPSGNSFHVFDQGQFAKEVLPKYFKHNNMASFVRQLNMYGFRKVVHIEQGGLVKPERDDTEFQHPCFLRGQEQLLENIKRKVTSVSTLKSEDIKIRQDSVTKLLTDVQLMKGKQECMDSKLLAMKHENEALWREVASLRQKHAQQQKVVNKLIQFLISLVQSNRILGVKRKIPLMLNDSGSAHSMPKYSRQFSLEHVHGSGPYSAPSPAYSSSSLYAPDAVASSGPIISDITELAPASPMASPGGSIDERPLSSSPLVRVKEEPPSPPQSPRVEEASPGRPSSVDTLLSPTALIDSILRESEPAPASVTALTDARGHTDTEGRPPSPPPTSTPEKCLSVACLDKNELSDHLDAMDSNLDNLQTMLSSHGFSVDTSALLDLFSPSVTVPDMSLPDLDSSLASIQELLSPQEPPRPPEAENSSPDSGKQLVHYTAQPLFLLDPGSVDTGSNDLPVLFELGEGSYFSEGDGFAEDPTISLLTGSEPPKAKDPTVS

NF-κB = conditions: at the same concentration (125-500 μM); cited from earlier work
Sendai virus = experiment: Effect on the replication of Sendai virus (virus yield by HAU titration in 37RC cells); assay type: cell-based; conditions: Respirovirus muris, in Primates; at 24 hours after infection; monkey kidney 37RC cells infected with SV (5 HAU/10^5 cells); virus yield in supernatant by HAU titration; read-out: ID50 (the 50% inhibitory dose/concentration)
Protocol: Methods: Monkey kidney 37RC cells were grown at 37° C. under the conditions described in Example 6 for T cells. The parainfluenza Sendai virus (SV) was grown in the allantoic cavity of 10-day-old embroynated eggs. Viral titre was expressed in haemagglutinating units (HAU) per ml; haemagglutin titration was done according to standard procedures using human 0 Rh+ erythrocytes, as described in C. Amici et al. (J. Virol. 68: 6890-6899, 1994). Confluent monolayers of 37RC cells were infected with SV virus (5 HAU/10^5 cells) for 1 h at 37° C., and then treated with different concentrations of test compounds. Virus yield at 24 hours after infection was determined in the supernatant of infected cells by HAU titration. The results from representative experiments are shown for CTC-73, 74, 83, 84 and 85 (as identified above) in FIGS. 1a, 2a, 3a, 4a and 5a, respectively.

Compound | IC50 (Sendai virus) | Concentration able to activate HSF1 and trigger synthesis of HSP70 (HSF1) | Block of NF-κB activation (NF-κB)
O=C1C=CCC1 [cyclopent-2-en-1-one] |  | 125 to 500 µM | able to block NF-κB activation
CCCC/C=C\CC1CC=CC1=O (stereo not drawn) [CTC-74, ((Z)-5-Hept-2-enyl)-cyclopent-2-enone] | 1 µM |  | 
CCCCCC/C=C\CC1CC=CC1=O (stereo not drawn) [CTC-83, ((Z)-5-Non-2-enyl)-cyclopent-2-enone] | 10 µM |  | 

Continued, in another order:

IC50 (Sendai virus) | Compound | Concentration able to activate HSF1 and trigger synthesis of HSP70 (HSF1) | Block of NF-κB activation (NF-κB)
10 µM | CCCCCCCCC/C=C/CC1CC=CC1=O (stereo not drawn) [CTC-85, ((E)-5-Dodec-2-enyl)-cyclopent-2-enone] |  | 
7 µM | CCCCCCCCC/C=C\CC1CC=CC1=O (stereo not drawn) [CTC-84, ((Z)-5-Dodec-2-enyl)-cyclopent-2-enone] |  | 
